Measurements as given in the supplement of paper PMC10307832.

Key:
Test in all cases: relative viability (nuclei count vs DMSO), 5 days (fraction); higher = more cells survive
NCI-H1355 = test system: NCI-H1355
Summary of the method: (§1)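 After 5 days of treatment, lung cancer cells in 1536-well plates were fixed and stained in a single step (final 0.05% Triton X-100, 1% formaldehyde, 1 ug/ml Hoechst) and their nuclei counted on 4× images. Treatment had been applied by pin tool the day after seeding as one drug alone or as a fixed anchor-drug dose with five library-drug doses (not always all listed) in √10 steps. Relative viability is the nuclei count of treated wells divided by that of vehicle wells, and values are medians of duplicate plates.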

ChaGo-K-1 = test system: ChaGo-K-1
Summary of the method: as §1

NCI-H2023 = test system: NCI-H2023
Summary of the method: as §1

ABC-1 = test system: ABC-1
Summary of the method: as §1

NCI-H2085 = test system: NCI-H2085
Summary of the method: as §1

NCI-H1793 = test system: NCI-H1793
Summary of the method: as §1

NCI-H2228 = test system: NCI-H2228
Summary of the method: as §1

NCI-H2405 = test system: NCI-H2405
Summary of the method: as §1

LCLC-103H = test system: LCLC-103H
Summary of the method: as §1

NCI-H2347 = test system: NCI-H2347
Summary of the method: as §1

NCI-H1734 = test system: NCI-H1734
Summary of the method: as §1

HCC-827 = test system: HCC-827
Summary of the method: as §1

HCC-15 = test system: HCC-15
Summary of the method: as §1

NCI-H3122 = test system: NCI-H3122
Summary of the method: as §1

COR-L23 = test system: COR-L23
Summary of the method: as §1

SW 1573 = test system: SW 1573
Summary of the method: as §1

NCI-H1944 = test system: NCI-H1944
Summary of the method: as §1

EPLC-272H = test system: EPLC-272H
Summary of the method: as §1

PC-14 = test system: PC-14
Summary of the method: as §1

HCC-44 = test system: HCC-44
Summary of the method: as §1

NCI-H2009 = test system: NCI-H2009
Summary of the method: as §1

Compound: Cc1csc(=NC2CCCCC2)n1/N=C/c1ccc(O)c(O)c1O [MIM1] + CCNC(=O)c1noc(-c2cc(C(C)C)c(O)cc2O)c1-c1ccc(CN2CCOCC2)cc1 [Luminespib] (partner 0.01 µM)
- relative viability (NCI-H1355; first compound 0.2 µM): 0.698
- relative viability (NCI-H1355; first compound 0.6325 µM): 0.591
- relative viability (NCI-H1355; first compound 2 µM): 0.726
- relative viability (NCI-H1355; first compound 6.325 µM): 0.659
- relative viability (NCI-H1355; first compound 20 µM): 0.391
- relative viability (ChaGo-K-1; first compound 0.2 µM): 0.559
- relative viability (ChaGo-K-1; first compound 0.6325 µM): 0.735
- relative viability (ChaGo-K-1; first compound 2 µM): 0.473
- relative viability (ChaGo-K-1; first compound 6.325 µM): 0.323
- relative viability (ChaGo-K-1; first compound 20 µM): 0.158
- relative viability (NCI-H2023; first compound 0.2 µM): 0.791
- relative viability (NCI-H2023; first compound 0.6325 µM): 0.691
- relative viability (NCI-H2023; first compound 2 µM): 0.646
- relative viability (NCI-H2023; first compound 6.325 µM): 0.388
- relative viability (NCI-H2023; first compound 20 µM): 0.07
- relative viability (ABC-1; first compound 0.2 µM): 0.499
- relative viability (ABC-1; first compound 0.6325 µM): 0.835
- relative viability (ABC-1; first compound 2 µM): 0.497
- relative viability (ABC-1; first compound 6.325 µM): 0.399
- relative viability (ABC-1; first compound 20 µM): 0.315
- relative viability (NCI-H2085; first compound 0.2 µM): 0.42
- relative viability (NCI-H2085; first compound 0.6325 µM): 0.466
- relative viability (NCI-H2085; first compound 2 µM): 0.455
- relative viability (NCI-H2085; first compound 6.325 µM): 0.442
- relative viability (NCI-H2085; first compound 20 µM): 0.404
- relative viability (NCI-H1793; first compound 0.2 µM): 0.187
- relative viability (NCI-H1793; first compound 2 µM): 0.188
- relative viability (NCI-H1793; first compound 6.325 µM): 0.162
- relative viability (NCI-H1793; first compound 20 µM): 0.138
- relative viability (NCI-H2228; first compound 0.2 µM): 0.18
- relative viability (NCI-H2228; first compound 0.6325 µM): 0.155
- relative viability (NCI-H2228; first compound 2 µM): 0.181
- relative viability (NCI-H2228; first compound 6.325 µM): 0.151
- relative viability (NCI-H2228; first compound 20 µM): 0.111
- relative viability (NCI-H2405; first compound 0.2 µM): 0.68
- relative viability (NCI-H2405; first compound 0.6325 µM): 0.92
- relative viability (NCI-H2405; first compound 2 µM): 0.654
- relative viability (NCI-H2405; first compound 6.325 µM): 0.543
- relative viability (NCI-H2405; first compound 20 µM): 0.403
- relative viability (LCLC-103H; first compound 0.2 µM): 1.03
- relative viability (LCLC-103H; first compound 0.6325 µM): 0.908
- relative viability (LCLC-103H; first compound 2 µM): 0.908
- relative viability (LCLC-103H; first compound 6.325 µM): 0.632
- relative viability (LCLC-103H; first compound 20 µM): 0.419
- relative viability (NCI-H2347; first compound 0.2 µM): 0.496
- relative viability (NCI-H2347; first compound 0.6325 µM): 0.403
- relative viability (NCI-H2347; first compound 2 µM): 0.236
- relative viability (NCI-H2347; first compound 6.325 µM): 0.346
- relative viability (NCI-H2347; first compound 20 µM): 0.334
- relative viability (NCI-H1734; first compound 0.2 µM): 0.0909
- relative viability (NCI-H1734; first compound 0.6325 µM): 0.233
- relative viability (NCI-H1734; first compound 2 µM): 0.198
- relative viability (NCI-H1734; first compound 6.325 µM): 0.168
- relative viability (NCI-H1734; first compound 20 µM): 0.157
- relative viability (HCC-827; first compound 0.2 µM): 0.517
- relative viability (HCC-827; first compound 0.6325 µM): 0.384
- relative viability (HCC-827; first compound 2 µM): 0.698
- relative viability (HCC-827; first compound 6.325 µM): 0.371
- relative viability (HCC-827; first compound 20 µM): 0.184
- relative viability (HCC-15; first compound 0.2 µM): 0.244
- relative viability (HCC-15; first compound 0.6325 µM): 0.353
- relative viability (HCC-15; first compound 2 µM): 0.43
- relative viability (HCC-15; first compound 6.325 µM): 0.259
- relative viability (HCC-15; first compound 20 µM): 0.133
- relative viability (NCI-H3122; first compound 0.2 µM): 0.0956
- relative viability (NCI-H3122; first compound 0.6325 µM): 0.0902
- relative viability (NCI-H3122; first compound 2 µM): 0.103
- relative viability (NCI-H3122; first compound 6.325 µM): 0.106
- relative viability (NCI-H3122; first compound 20 µM): 0.0938
- relative viability (COR-L23; first compound 0.2 µM): 0.555
- relative viability (COR-L23; first compound 0.6325 µM): 0.75
- relative viability (COR-L23; first compound 2 µM): 0.7
- relative viability (COR-L23; first compound 6.325 µM): 0.469
- relative viability (COR-L23; first compound 20 µM): 0.321
- relative viability (SW 1573; first compound 0.2 µM): 0.22
- relative viability (SW 1573; first compound 0.6325 µM): 0.318
- relative viability (SW 1573; first compound 2 µM): 0.194
- relative viability (SW 1573; first compound 6.325 µM): 0.143
- relative viability (SW 1573; first compound 20 µM): 0.069
- relative viability (NCI-H1944; first compound 0.2 µM): 0.632
- relative viability (NCI-H1944; first compound 0.6325 µM): 0.823
- relative viability (NCI-H1944; first compound 2 µM): 0.466
- relative viability (NCI-H1944; first compound 6.325 µM): 0.517
- relative viability (NCI-H1944; first compound 20 µM): 0.568
- relative viability (EPLC-272H; first compound 0.2 µM): 0.491
- relative viability (EPLC-272H; first compound 0.6325 µM): 0.266
- relative viability (EPLC-272H; first compound 2 µM): 0.205
- relative viability (EPLC-272H; first compound 6.325 µM): 0.143
- relative viability (EPLC-272H; first compound 20 µM): 0.122
- relative viability (PC-14; first compound 0.2 µM): 0.177
- relative viability (PC-14; first compound 0.6325 µM): 0.137
- relative viability (PC-14; first compound 2 µM): 0.17
- relative viability (PC-14; first compound 6.325 µM): 0.115
- relative viability (PC-14; first compound 20 µM): 0.144
- relative viability (HCC-44; first compound 0.2 µM): 0.952
- relative viability (HCC-44; first compound 0.6325 µM): 1.04
- relative viability (HCC-44; first compound 2 µM): 0.433
- relative viability (HCC-44; first compound 6.325 µM): 0.735
- relative viability (HCC-44; first compound 20 µM): 0.228
- relative viability (NCI-H2009; first compound 0.2 µM): 1
- relative viability (NCI-H2009; first compound 0.6325 µM): 1.06
- relative viability (NCI-H2009; first compound 2 µM): 1.03
- relative viability (NCI-H2009; first compound 6.325 µM): 0.877
- relative viability (NCI-H2009; first compound 20 µM): 1.02
